Columns and labels:
[1] = test system: RAF proto-oncogene serine/threonine-protein kinase (Homo sapiens), P04049 [Y340D,Y341D]; test: Selectivity interaction (Kinase panel (Z-LYTE Assay)) EUB0001632a RAF1; conditions: at 10 µM
[2] = target: Death-associated protein kinase 2 (Homo sapiens) (UniProt Q9UIK4); test: Selectivity interaction (Upstate Kinase Profiler service (Millipore)) EUB0000056c DAPK2; conditions: at 1 µM
[3] = target: Mitogen-activated protein kinase 8 (Homo sapiens, UniProt P45983); test: Selectivity interaction (ProQinase) EUB0000171b MAPK8
Sequence of Mitogen-activated protein kinase 8 (P45983 whole entry): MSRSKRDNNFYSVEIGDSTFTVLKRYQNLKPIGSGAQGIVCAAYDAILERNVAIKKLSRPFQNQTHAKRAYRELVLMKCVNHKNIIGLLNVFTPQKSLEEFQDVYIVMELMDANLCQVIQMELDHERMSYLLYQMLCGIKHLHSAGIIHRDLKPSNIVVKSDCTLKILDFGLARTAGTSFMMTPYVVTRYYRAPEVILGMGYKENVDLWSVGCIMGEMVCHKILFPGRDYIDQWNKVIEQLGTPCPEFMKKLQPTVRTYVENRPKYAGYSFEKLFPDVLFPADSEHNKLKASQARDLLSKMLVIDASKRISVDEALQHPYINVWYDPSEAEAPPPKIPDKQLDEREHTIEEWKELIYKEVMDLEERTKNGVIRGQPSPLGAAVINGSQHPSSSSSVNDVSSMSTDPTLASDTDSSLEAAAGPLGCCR

[4] = target: Glycogen synthase kinase-3 beta (Homo sapiens, UniProt P49841); test: Selectivity interaction (KinomeScan (DiscoverX)) EUB0000695a GSK3B; conditions: at 100 nM
[5] = target: TRAF2 and NCK-interacting protein kinase (Homo sapiens) (UniProt Q9UKE5); test: Selectivity interaction (KinomeScan (DiscoverX)) EUB0000595a TNIK; conditions: at 10 µM
Sequence of TRAF2 and NCK-interacting protein kinase (Homo sapiens) (Q9UKE5 whole entry, looked up): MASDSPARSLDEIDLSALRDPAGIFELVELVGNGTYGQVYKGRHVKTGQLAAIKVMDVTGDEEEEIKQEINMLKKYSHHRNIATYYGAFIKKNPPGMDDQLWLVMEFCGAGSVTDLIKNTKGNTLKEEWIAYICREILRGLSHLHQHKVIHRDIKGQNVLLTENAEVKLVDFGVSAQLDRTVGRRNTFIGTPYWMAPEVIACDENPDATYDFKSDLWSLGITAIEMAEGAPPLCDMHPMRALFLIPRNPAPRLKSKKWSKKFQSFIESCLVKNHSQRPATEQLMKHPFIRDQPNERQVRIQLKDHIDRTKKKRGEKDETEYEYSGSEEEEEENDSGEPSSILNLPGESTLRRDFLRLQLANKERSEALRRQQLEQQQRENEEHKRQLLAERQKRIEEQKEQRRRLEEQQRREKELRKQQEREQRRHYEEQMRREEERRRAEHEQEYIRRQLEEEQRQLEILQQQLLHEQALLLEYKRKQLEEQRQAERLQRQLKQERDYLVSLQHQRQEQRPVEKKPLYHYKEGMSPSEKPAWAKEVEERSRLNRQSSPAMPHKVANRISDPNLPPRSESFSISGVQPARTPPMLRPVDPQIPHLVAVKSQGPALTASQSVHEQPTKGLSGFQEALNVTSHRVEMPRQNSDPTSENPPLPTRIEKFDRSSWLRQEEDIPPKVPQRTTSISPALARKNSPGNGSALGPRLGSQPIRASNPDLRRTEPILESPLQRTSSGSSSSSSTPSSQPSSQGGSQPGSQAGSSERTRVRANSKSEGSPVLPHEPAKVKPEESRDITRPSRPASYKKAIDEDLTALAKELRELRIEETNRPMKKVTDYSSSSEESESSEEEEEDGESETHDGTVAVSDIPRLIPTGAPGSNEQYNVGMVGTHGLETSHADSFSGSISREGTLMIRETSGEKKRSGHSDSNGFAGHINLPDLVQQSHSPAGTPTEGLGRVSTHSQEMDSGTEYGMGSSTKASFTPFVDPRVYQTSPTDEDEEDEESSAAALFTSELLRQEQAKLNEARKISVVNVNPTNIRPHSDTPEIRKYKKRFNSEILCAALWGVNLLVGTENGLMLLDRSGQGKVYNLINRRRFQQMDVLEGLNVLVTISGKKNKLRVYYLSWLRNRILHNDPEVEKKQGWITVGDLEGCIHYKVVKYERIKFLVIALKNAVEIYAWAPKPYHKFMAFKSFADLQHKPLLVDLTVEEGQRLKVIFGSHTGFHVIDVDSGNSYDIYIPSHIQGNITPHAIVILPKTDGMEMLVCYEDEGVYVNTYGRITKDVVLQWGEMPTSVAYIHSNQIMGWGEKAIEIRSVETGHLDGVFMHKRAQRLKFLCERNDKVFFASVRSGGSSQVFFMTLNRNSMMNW

[6] = target: T1, Serine/threonine-protein kinase ULK1 (Homo sapiens) (UniProt O75385); test: Selectivity interaction (Ambit KINOMEscan and KiNATiv profiling in Jurkat cells) EUB0000090b ULK1; type: cell-based; conditions: at 1 µM
T1 sequence (whole entry): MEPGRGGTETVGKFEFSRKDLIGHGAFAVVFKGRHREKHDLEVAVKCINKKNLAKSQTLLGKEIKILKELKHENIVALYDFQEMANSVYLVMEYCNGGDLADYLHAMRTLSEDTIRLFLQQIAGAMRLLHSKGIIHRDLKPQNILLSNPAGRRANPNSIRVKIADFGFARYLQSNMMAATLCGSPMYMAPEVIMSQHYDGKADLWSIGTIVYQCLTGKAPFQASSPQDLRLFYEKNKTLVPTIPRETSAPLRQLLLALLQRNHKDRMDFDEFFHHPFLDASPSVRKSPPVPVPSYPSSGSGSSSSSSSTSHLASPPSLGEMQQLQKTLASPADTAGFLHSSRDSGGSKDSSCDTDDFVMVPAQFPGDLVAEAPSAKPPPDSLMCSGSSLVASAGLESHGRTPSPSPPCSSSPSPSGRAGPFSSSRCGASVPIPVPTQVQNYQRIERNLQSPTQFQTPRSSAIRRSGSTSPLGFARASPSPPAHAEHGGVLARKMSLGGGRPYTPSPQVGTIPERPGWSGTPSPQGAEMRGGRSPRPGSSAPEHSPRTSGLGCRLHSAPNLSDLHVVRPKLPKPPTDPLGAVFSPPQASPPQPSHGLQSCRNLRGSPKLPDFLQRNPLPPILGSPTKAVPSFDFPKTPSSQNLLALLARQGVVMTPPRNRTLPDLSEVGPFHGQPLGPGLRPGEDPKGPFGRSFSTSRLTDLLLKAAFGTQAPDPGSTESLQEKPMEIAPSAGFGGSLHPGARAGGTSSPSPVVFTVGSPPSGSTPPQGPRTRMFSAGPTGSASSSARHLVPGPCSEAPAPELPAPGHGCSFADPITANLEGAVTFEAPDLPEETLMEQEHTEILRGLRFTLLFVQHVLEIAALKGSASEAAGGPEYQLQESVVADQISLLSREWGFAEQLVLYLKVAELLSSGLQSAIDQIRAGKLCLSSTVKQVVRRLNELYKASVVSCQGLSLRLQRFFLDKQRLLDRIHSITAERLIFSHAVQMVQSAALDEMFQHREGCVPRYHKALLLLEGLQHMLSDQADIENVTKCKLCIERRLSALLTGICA

[7] = target: Serine/threonine-protein kinase PAK 6 (Homo sapiens) (UniProt Q9NQU5); test: Selectivity interaction (Ambit KINOMEscan and KiNATiv profiling in Jurkat cells) EUB0000090b PAK6; type: cell-based; conditions: at 1 µM
Sequence of Serine/threonine-protein kinase PAK 6 (Homo sapiens) (Q9NQU5 whole entry, looked up): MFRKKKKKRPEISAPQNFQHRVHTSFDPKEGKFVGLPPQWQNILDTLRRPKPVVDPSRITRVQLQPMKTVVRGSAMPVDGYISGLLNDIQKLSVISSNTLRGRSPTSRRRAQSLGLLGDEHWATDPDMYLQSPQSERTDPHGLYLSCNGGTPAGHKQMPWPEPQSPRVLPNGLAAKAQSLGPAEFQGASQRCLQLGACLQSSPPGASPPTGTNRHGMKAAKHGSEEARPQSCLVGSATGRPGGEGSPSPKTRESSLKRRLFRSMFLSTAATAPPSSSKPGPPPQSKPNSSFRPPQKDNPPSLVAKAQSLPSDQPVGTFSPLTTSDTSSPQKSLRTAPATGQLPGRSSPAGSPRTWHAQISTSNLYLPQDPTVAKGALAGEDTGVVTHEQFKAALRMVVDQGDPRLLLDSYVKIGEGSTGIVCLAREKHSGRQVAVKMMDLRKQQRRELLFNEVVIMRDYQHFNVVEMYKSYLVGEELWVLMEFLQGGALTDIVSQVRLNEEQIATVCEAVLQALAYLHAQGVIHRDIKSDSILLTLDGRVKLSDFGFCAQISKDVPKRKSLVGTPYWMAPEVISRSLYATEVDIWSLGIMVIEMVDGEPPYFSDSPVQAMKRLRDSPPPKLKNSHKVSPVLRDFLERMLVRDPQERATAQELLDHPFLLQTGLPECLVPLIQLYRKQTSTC

[8] = target: T2, Inhibitor of nuclear factor kappa-B kinase subunit alpha (Homo sapiens) (UniProt O15111); test: Selectivity interaction (Ambit KINOMEscan and KiNATiv profiling in Jurkat cells) EUB0000090b CHUK; type: cell-based; conditions: at 1 µM
T2 sequence (whole entry): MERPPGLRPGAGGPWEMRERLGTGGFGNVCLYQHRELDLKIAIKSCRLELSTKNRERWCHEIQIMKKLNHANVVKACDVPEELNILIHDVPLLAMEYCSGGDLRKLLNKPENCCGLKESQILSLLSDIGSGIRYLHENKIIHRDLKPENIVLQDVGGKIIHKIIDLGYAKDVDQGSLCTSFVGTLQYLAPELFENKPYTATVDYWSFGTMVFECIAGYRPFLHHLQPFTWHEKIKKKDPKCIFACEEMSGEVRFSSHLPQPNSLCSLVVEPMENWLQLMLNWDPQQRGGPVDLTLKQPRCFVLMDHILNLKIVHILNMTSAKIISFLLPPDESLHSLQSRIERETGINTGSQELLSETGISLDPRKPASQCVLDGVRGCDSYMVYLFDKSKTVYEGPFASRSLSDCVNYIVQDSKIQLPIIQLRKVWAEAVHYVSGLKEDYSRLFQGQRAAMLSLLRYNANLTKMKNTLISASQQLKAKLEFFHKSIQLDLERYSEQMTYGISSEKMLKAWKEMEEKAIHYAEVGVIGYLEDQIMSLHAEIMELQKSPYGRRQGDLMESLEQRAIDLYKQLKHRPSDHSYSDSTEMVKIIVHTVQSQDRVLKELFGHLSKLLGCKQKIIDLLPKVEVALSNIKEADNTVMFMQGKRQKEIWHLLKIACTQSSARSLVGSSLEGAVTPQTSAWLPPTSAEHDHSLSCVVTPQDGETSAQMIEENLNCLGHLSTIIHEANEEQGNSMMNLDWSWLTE

[9] = target: Glycogen synthase kinase-3 alpha (Homo sapiens, UniProt P49840); test: Selectivity interaction (KinomeScan (DiscoverX)) EUB0000618a GSK3A; conditions: at 10 µM
Sequence of Glycogen synthase kinase-3 alpha (P49840 2-483 limits assumed): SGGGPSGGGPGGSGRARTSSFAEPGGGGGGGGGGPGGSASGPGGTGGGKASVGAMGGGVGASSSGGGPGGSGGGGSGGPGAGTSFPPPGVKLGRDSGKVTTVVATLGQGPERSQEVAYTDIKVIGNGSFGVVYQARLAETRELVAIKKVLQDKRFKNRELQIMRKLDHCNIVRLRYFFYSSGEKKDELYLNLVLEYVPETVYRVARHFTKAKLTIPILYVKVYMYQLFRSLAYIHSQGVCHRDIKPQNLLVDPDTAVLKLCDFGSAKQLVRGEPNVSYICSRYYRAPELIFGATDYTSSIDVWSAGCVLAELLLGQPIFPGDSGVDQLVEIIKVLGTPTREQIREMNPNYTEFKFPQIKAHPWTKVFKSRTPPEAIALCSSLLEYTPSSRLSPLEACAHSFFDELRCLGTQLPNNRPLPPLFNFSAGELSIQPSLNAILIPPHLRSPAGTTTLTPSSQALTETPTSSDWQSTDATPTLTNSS

[10] = target: Tyrosine-protein kinase Fes/Fps (Homo sapiens) (UniProt P07332); test: Selectivity interaction (KinomeScan (DiscoverX)) EUB0001619a FES; conditions: at 1 µM
Sequence of Tyrosine-protein kinase Fes/Fps (Homo sapiens) (P07332 whole entry): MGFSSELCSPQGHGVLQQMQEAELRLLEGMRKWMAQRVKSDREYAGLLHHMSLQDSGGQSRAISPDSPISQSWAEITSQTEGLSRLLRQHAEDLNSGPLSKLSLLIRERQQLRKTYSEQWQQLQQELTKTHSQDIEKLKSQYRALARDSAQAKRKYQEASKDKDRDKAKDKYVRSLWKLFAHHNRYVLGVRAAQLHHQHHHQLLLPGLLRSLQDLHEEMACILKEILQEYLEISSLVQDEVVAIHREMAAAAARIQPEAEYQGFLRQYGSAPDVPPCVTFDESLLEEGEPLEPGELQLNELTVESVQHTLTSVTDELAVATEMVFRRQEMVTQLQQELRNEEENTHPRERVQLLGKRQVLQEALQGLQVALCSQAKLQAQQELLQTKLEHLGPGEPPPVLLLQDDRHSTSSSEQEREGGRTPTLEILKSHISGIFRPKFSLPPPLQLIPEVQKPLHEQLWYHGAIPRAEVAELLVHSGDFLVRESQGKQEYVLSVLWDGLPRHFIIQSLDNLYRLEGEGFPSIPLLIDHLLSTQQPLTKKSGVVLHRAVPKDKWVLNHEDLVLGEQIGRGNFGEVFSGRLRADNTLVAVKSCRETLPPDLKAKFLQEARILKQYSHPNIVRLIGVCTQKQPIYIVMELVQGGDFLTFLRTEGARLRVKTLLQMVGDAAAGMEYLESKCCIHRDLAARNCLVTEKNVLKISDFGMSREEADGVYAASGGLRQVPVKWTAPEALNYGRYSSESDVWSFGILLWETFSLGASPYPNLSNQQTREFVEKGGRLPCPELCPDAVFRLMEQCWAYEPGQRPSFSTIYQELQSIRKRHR

Sequence of RAF proto-oncogene serine/threonine-protein kinase (Homo sapiens), P04049 [Y340D,Y341D] (P04049 whole entry Y340D/Y341D): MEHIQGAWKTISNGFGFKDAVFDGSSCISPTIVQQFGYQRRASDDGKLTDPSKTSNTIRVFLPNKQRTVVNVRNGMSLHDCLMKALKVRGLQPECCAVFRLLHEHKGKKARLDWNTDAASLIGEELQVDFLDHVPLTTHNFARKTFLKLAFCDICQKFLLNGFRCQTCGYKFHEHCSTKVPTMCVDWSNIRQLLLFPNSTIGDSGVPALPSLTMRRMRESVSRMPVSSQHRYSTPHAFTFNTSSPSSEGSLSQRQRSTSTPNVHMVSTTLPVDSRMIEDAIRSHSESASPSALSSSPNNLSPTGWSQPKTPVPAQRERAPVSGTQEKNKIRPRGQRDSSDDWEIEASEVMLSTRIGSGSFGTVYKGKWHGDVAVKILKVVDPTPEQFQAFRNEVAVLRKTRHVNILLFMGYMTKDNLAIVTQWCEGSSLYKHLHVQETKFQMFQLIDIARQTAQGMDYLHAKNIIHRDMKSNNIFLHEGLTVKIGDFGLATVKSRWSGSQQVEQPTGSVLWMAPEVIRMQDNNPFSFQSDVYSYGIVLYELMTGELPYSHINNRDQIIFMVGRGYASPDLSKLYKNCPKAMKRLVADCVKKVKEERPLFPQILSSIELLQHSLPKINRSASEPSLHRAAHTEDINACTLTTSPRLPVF
Sequence of Death-associated protein kinase 2 (Homo sapiens) (Q9UIK4 whole entry, looked up): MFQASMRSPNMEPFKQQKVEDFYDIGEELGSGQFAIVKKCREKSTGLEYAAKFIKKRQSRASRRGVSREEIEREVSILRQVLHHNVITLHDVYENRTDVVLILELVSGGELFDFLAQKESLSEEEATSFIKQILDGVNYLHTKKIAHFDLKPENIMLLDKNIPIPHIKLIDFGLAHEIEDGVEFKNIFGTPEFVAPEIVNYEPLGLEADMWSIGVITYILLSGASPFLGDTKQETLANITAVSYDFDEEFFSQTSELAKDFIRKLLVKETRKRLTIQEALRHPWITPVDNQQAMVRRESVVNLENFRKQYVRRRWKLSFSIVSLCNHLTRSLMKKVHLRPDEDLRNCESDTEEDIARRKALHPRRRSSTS

Cn1cc(-n2cnc3c(NCc4nc5cc(Cl)c(Cl)cc5[nH]4)nc(N4CCOCC4)nc32)cn1
% of control [1]: -1.53%

Cc1ccc(-c2ccc3c(ccc4sc5c(c43)NC[C@@H](C)NC5=O)n2)cn1
% of inhibition [2]: 30%

C=CC(=O)Nc1cccc(C(=O)Nc2ccc(Nc3cc(-c4[nH]c(SC)nc4C)ccn3)cc2)c1
% of control ([3]; at 1 µM): 5%
% of control ([3]; at 5 µM): 1%

Cc1cc(F)c(C(=O)Nc2cccc(-c3nncn3C(C)C)n2)cc1-n1cnc(C2CC2)c1
% of control [4]: 100%

COCC(=O)NC/C=C/c1ccc2ncnc(Nc3ccc(Oc4ccc(C)nc4)c(C)c3)c2c1 [CP-724714]
% of control [5]: 89%

CN(C)C/C=C/C(=O)Nc1ccc(C(=O)N2CCCC(Nc3ncc(Cl)c(-c4c[nH]c5ccccc45)n3)C2)cc1 (stereo unspecified)
% of control [6]: 88%
% of control [7]: 33%
% of control [8]: 100%

O[C@H]1CC[C@H](Nc2ncc3nc(Nc4c(F)cc(F)cc4F)n([C@H]4CCOC4)c3n2)CC1
% of control [9]: 90%

N#Cc1cccc(-c2c[nH]c3ncnc(N4CCOCC4)c23)c1
% of control [10]: 100%

From ChEMBL document CHEMBL5465560, “Selectivity Literature for EUbOPEN Chemogenomic Library” (2024)
